Key:
AGS = experiment: alamarBlue cell viability (survival rate, IC50), AGS; format: cell-based; settings: AGS (gastric cancer); for Cancer cell line survival rate (%) / viability at 10 µM: compound 10 µM, 48 hours; for IC50 / viability at 10 µM: Homo sapiens; for IC50: 2.5-40 µM, positive control = doxorubicin; for viability at 10 µM: read-out: Cancer cell line survival rate (%)
Source text: (§1) A p-value < 0.05 was considered statistically significant.

23132/87 = experiment: alamarBlue cell viability (survival rate, IC50), 23132/87; format: cell-based; settings: 23132/87 (gastric cancer); for Cancer cell line survival rate (%) / viability at 10 µM: compound 10 µM, 48 hours; for IC50: 2.5-40 µM, positive control = doxorubicin; for viability at 10 µM: read-out: Cancer cell line survival rate (%)
Source text: as §1

SNU-719 = experiment: alamarBlue cell viability (survival rate, IC50), SNU-719; format: cell-based; settings: for Cancer cell line survival rate (%) / viability at 10 µM: SNU-719 (gastric cancer), compound 10 µM, 48 hours; for IC50: SNU719 (gastric cancer), 2.5-40 µM, positive control = doxorubicin; for viability at 10 µM: read-out: Cancer cell line survival rate (%)
Source text: as §1

SNU-81 = experiment: alamarBlue cell viability (survival rate, IC50), SNU-81; format: cell-based; settings: for Cancer cell line survival rate (%) / viability at 10 µM: SNU-81 (colorectal cancer), compound 10 µM, 48 hours; for IC50: SNU81 (colorectal cancer), 2.5-40 µM, positive control = oxaliplatin, read-out: IC50; for viability at 10 µM: read-out: Cancer cell line survival rate (%)
Source text: as §1

SNU-C5 = experiment: alamarBlue cell viability (survival rate, IC50), SNU-C5; format: cell-based; settings: for Cancer cell line survival rate (%) / viability at 10 µM: SNU-C5 (colorectal cancer), compound 10 µM, 48 hours; for IC50: SNUC5 (colorectal cancer), 2.5-40 µM, positive control = oxaliplatin, read-out: IC50; for viability at 10 µM: read-out: Cancer cell line survival rate (%)
Source text: as §1

SW48 = experiment: alamarBlue cell viability (survival rate, IC50), SW48; format: cell-based; settings: SW48 (colorectal cancer); for Cancer cell line survival rate (%) / viability at 10 µM: compound 10 µM, 48 hours; for IC50 / viability at 10 µM: Homo sapiens; for IC50: 2.5-40 µM, positive control = oxaliplatin; for viability at 10 µM: read-out: Cancer cell line survival rate (%)
Source text: as §1

SNU201 = experiment: alamarBlue cell viability (survival rate), SNU201; format: cell-based; settings: SNU201 (glioblastoma), compound 10 µM, 48 hours; for viability at 10 µM: read-out: Cancer cell line survival rate (%)
Source text: as §1

SNU466 = experiment: alamarBlue cell viability (survival rate), SNU466; format: cell-based; settings: SNU466 (glioblastoma), compound 10 µM, 48 hours; for viability at 10 µM: read-out: Cancer cell line survival rate (%)
Source text: as §1

HepG2 = experiment: alamarBlue cell viability (survival rate), HepG2; format: cell-based; settings: HepG2 (liver cancer), compound 10 µM, 48 hours; for viability at 10 µM: Homo sapiens, read-out: Cancer cell line survival rate (%)
Source text: as §1

MiaPaCa-2 = experiment: alamarBlue cell viability (survival rate), MiaPaCa-2; format: cell-based; settings: MiaPaCa-2 (pancreatic cancer), compound 10 µM, 48 hours; for viability at 10 µM: Homo sapiens, MIA PaCa-2, read-out: Cancer cell line survival rate (%)
Source text: as §1

[1] = system: various cancer cell lines; experiment: alamarBlue cell viability, statements across the cell line panel; settings: for anticancer activity: various cancer cell lines
Experimental: AGS, SW48, HepG2, and MiaPaCa-2 was purchased from ATCC (American Type Culture Collection, USA), SNU cell lines from the Korean Cell Line Bank (KCLB, Korea), and 23132/87 from the Leibniz Institute DSMZ - German Collection of Microorganisms and Cell Cultures GmbH (DSMZ, Germany). All cell lines were cultured in RPMI-1640 medium (HyClone, USA) supplemented with 10% FBS (Gibco, USA) and 1% penicillin-streptomycin (HyClone, USA) under conditions of 5% CO2, 37°C.
Cells were seeded at a density of 5 × 10^3cells/well in a 96-well plate for 24 hours, then treated with the compound at an appropriate concentration (10 µM) for 48 hours. After treatment, alamarBlue reagent was added at a volume ratio of 1/10 of the treatment volume and incubated for 4 hours in a 37°C cell incubator (protected from direct light). Cell viability was then determined by measuring absorbance values at 570 nm and 600 nm using a microplate reader. The anticancer effects of candidate compounds were evaluated by assessing the cell viability (%) of cells treated at specific concentrations and the half-maximal inhibitory concentration (IC50) of each natural product. Doxorubicin and oxaliplatin were used as positive controls for gastric and colorectal cancer, respectively.
Statistical analysis was performed using R software (version 4.2.2) (R Core Team). Differences between groups were assessed using student's t-test or 1-way ANOVA followed by post-hoc Tukey HSD test. A p-value < 0.05 was considered statistically significant.
Further, to measure the IC50 values against six cancer cell lines.

SMILES	Cancer cell line survival rate (%) (AGS)	Cancer cell line survival rate (%) (23132/87)	Cancer cell line survival rate (%) (SNU-719)	Cancer cell line survival rate (%) (SNU-81)	IC50 (AGS) [µM]	IC50 (23132/87) [µM]	IC50 (SNU-719) [µM]	IC50 (SNU-81) [µM]	IC50 (SNU-C5) [µM]	IC50 (SW48) [µM]	viability at 10 µM (AGS) [%]	viability at 10 µM (23132/87) [%]	viability at 10 µM (SNU-719) [%]	viability at 10 µM (SNU-81) [%]	viability at 10 µM (SNU-C5) [%]	viability at 10 µM (SW48) [%]	viability at 10 µM (SNU201) [%]	viability at 10 µM (SNU466) [%]	viability at 10 µM (HepG2) [%]	viability at 10 µM (MiaPaCa-2) [%]	also measured
C/C=C/c1ccc(O[C@H](C)[C@H](c2ccc(O)c(OC)c2)c2ccc(O)c(C(=O)CCCCCCCCc3ccc(O)c(O)c3)c2O)c(OC)c1 (relative stereo) [Compound 8, Myrifragranone A]	2.19	3.92	2.27	10.02	–	–	–	–	–	–	–	–	–	–	–	–	–	–	–	–	Cancer cell line survival rate (%) (SNU-C5): 4.41%; Cancer cell line survival rate (%) (SW48): 2.04%; Cancer cell line survival rate (%) (SNU201): 108.12%; Cancer cell line survival rate (%) (SNU466): 93.39%; Cancer cell line survival rate (%) (HepG2): 95.41%; Cancer cell line survival rate (%) (MiaPaCa-2): 74.57%
C=CCc1cc(OC)c(O[C@H](C)[C@H](c2ccc(O)c(OC)c2)c2ccc(O)c(C(=O)CCCCCCCCc3ccc(O)c(O)c3)c2O)c(OC)c1 [Compound 1, Myricone A or Myrifragranone B, reference compound]	1.13	4.71	3.95	94.79	4.07	4.09	3.99	14.6	6.32	4.3	–	–	–	–	–	–	–	–	–	–	Cancer cell line survival rate (%) (SNU-C5): 8.73%; Cancer cell line survival rate (%) (SW48): 1.75%; Cancer cell line survival rate (%) (SNU201): 2.07%; Cancer cell line survival rate (%) (SNU466): 1.7%; Cancer cell line survival rate (%) (HepG2): 2.07%; Cancer cell line survival rate (%) (MiaPaCa-2): 3.15%
C=CCc1cc(OC)c(O[C@H](C)[C@@H](c2ccc(O)c(OC)c2)c2ccc(O)c(C(=O)CCCCCCCCc3ccc(O)c(O)c3)c2O)c(OC)c1 [Compound 2, Myricone B]	–	–	–	–	4.59	4.25	4.7	16.6	6.85	6.18	2.45	7.44	4.55	103	22.1	7.98	1.43	2.29	1.47	3.67	–
C=CCc1cc(OC)c(O[C@H](C)[C@@H](c2ccc(O)c(OC)c2)c2ccc(O)c(C(=O)CCCCCCCCc3ccc(O)cc3)c2O)c(OC)c1 [Compound 4, Myricone D]	10.15	8.41	10.19	115.60	7.27	4.14	5.01	16.9	5.57	5.73	–	–	–	–	–	–	–	–	–	–	Cancer cell line survival rate (%) (SNU-C5): 12.41%; Cancer cell line survival rate (%) (SW48): 2.61%; Cancer cell line survival rate (%) (SNU201): 2.44%; Cancer cell line survival rate (%) (SNU466): 1.74%; Cancer cell line survival rate (%) (HepG2): 1.84%; Cancer cell line survival rate (%) (MiaPaCa-2): 3.54%; anticancer activity [1]: high anticancer activity
C=CCc1ccc(O[C@H](C)[C@H](c2ccc(O)c(OC)c2)c2ccc(O)c(C(=O)CCCCCCCCc3ccc(O)c(O)c3)c2O)c(OC)c1 [Compound 5, Myricone E]	–	–	–	–	–	–	–	–	–	–	42.1	52.1	45	126	37.6	10.2	0.61	0.58	2.34	1.64	–
C=CCc1cc(OC)c(O[C@H](C)[C@H](c2ccc(O)c(OC)c2)c2cc(O)c(O)cc2CCCCCCCCC(=O)c2c(O)cccc2O)c(OC)c1 [Compound 6, Myricone F]	–	–	–	–	3.35	2.39	2.58	10.3	4.04	3.09	0.51	1.46	1.36	55.8	3.53	0.82	1.4	1.96	1.32	2.16	cytotoxic effects ([1]; gastric cancer cell lines and colorectal cancer cell lines, 10 µM, 48 hours): excellent cytotoxic effects; anticancer activity [1]: high anticancer activity
C=CCc1cc(OC)c(O[C@@H](C)[C@H](Oc2cc(CCCCCCCCC(=O)c3c(O)cccc3O)ccc2O)c2ccc(O)c(OC)c2)c(OC)c1 [Compound 10, Myricone K]	–	–	–	–	–	–	–	–	–	–	4.14	2.77	1.85	16.1	4.94	2.67	3.28	0.6	8.7	4.3	anticancer activity [1]: high anticancer activity

Source: patent EP4790046A1, “NOVEL COMPOUND DERIVED FROM MYRISTICA FRAGRANS, AND ANTICANCER COMPOSITION COMPRISING SAME” (Korea Institute of Science and Technology, priority 2023, dated 2025)
